Read-outs that look alike come from different tables or passages of the source.
Legend:
[1] = test system: HepG2; conditions: cited from earlier work
[2] = test system: HeLa; conditions: cited from earlier work
[3] = test system: CT-26; conditions: cited from earlier work
[4] = test system: MeWo; conditions: cited from earlier work
[5] = test system: NHDF; design: method as in earlier work; conditions: cited from earlier work
[6] = test system: Colo205; conditions: cited from earlier work
[7] = test system: MCF-7; conditions: reference cell empty, probably merged; cited from earlier work
[8] = test system: normal human dermal fibroblasts (NHDF); assay: Cytotoxicity MTS assay on normal fibroblasts; type: cell-based; conditions: Homo sapiens, 48 h, tested 0.01-0.3 mM, read-out: Half maximal inhibition concentration (IC50)
Protocol: (§1) Cell culture: NHDF, HeLa, HOS, HepG2, MCF7, MeWo and CT-26 cells were cultivated in complete Eagle’s Minimal Essential Medium alpha (aMEM) containing a 1% Penicillin–Streptomycin–Amphotericin B mixture and a 10% fetal bovine serum under 5% CO2 humidified atmosphere at 37 °C. LN-229 cells were cultivated in DMEM with a 1% Penicillin–Streptomycin–Amphotericin B mixture and a 5% fetal bovine serum. U-118 cells were cultivated in DMEM with a 1% Penicillin–Streptomycin–Amphotericin B mixture and a 10% fetal bovine serum. StemPro™ Accutase™ Cell Dissociation Reagent was used for passaging MeWo and U-118 cells, and TrypLE Express was used for all other cell lines.
(§2) The working solutions were prepared by diluting the stock solutions with complete medium so that the final concentration of DMSO in the cell culture was 1%. The working solutions were used for incubation. Control cells were treated only with complete cell culture medium containing 1% DMSO.
(§3) Cytotoxicity MTS assay: In order to perform the MTS assay, cells were placed in culture-treated 96-well plates at densities of 5 × 10^3 cells/well (NHDF and CT-26), 7 × 10^3 cells/well (MCF7) and 10 × 10^3 cells/well (HOS, HeLa, HepG2, MeWo, LN-229, U-118) in 100 μL of a MEM medium/well and allowed to adhere for 24 h. After 24 h, the culture medium was replaced with the tested compound solutions at various concentrations, and the plates were incubated for another 48 h. Before the final reading, 20 μL CellTiter 96® Aqueous One Solution/well was added, and the plates were incubated for 1–4 h. Finally, the absorbance was recorded with a microplate reader at λ = 490 nm. The relative cell viability was expressed as a percentage of the viability of control, and the half maximal inhibitory concentration (IC50) was determined from the graphical representation of the cell viability vs. concentration. Graphical data were expressed as means ± standard error of the mean (S.E.M.). Statistical analysis was made with two-way ANOVA using Tukey’s multiple comparisons test. The difference was considered significant when p < 0.05. Data analysis was performed with GraphPad Prism software version 7.00 for Windows.

[9] = test system: mouse colon carcinoma cell line (CT26); assay: Cytotoxicity MTS assay on CT-26; type: cell-based; conditions: for Selectivity index (SI): IC50 NHDF / IC50 CT-26; for IC50: CT-26, 48 h
Protocol: as §1, §2, §3

[10] = test system: cervical carcinoma (HeLa) cells; assay: Cytotoxicity MTS assay on HeLa; type: cell-based, human; conditions: for Selectivity index (SI): IC50 NHDF / IC50 HeLa
Protocol: as §1, §2, §3

[11] = test system: liver cancer (HepG2) cells; assay: Cytotoxicity MTS assay on HepG2; type: cell-based, human; conditions: for IC50: HepG2, 48 h; for Selectivity index (SI): IC50 NHDF / IC50 HepG2
Protocol: as §1, §2, §3

[12] = test system: osteosarcoma (HOS) cells; assay: Cytotoxicity MTS assay on HOS; type: cell-based, human; conditions: Homo sapiens, 48 h, tested 0.01-0.3 mM, read-out: Half maximal inhibition concentration (IC50)
Protocol: as §1, §2, §3

[13] = test system: glioblastoma (LN229) cells; assay: Cytotoxicity MTS assay on LN229; type: cell-based, human; conditions: Homo sapiens, LN-229, LN229, 48 h, tested 0.01-0.3 mM, read-out: Half maximal inhibition concentration (IC50)
Protocol: as §1, §2, §3

[14] = test system: breast cancer (MCF7) cells; assay: Cytotoxicity MTS assay on MCF-7; type: cell-based, human; conditions: for IC50: Homo sapiens, MCF7, MCF-7, 48 h, MTS, tested 0.01-0.3 mM, read-out: Half maximal inhibition concentration (IC50); for Selectivity index (SI): IC50 NHDF / IC50 MCF7
Protocol: as §1, §2, §3

[15] = test system: malignant melanoma (MeWo) cells; assay: Cytotoxicity MTS assay on MeWo; type: cell-based, human; conditions: Homo sapiens; MeWo, 48 h, MTS; tested 0.01-0.3 mM; read-out: Half maximal inhibition concentration (IC50)
Protocol: as §1, §2, §3

[16] = test system: glioblastoma cell line (U-118); assay: Cytotoxicity MTS assay on U-118; type: cell-based, human; conditions: Homo sapiens; U-118, 48 h, MTS; tested 0.01-0.3 mM; read-out: Half maximal inhibition concentration (IC50)
Protocol: as §1, §2, §3

[17] = DPPH radical scavenging activity; conditions: DPPH, 0.0019-1 mM
From the text: In this light, the antioxidant activity of the studied phenothiazine derivatives was investigated using DPPH assay, measuring the dependence of the free radical inhibition on the concentration as highlighted by a decreasing of the absorbance of DPPH when the concentration of the compound is increasing. The results, expressed in percentage of inhibition, are represented in Figure 4.
Ex Vivo Radical Scavenging Activity: In order to evaluate antioxidant activity of the studied compounds, a bleaching method of the 1,1-diphenyl-2-picryl hydrazyl (DPPH) radical was used. Briefly, a stock solution of 2 mM of each compound in ethanol was prepared and then diluted to obtain 10 different concentrations from 1 mM to 0.0019 mM using a 96-well plate. The diluted solutions with different concentrations were mixed with an equal volume of ethanolic DPPH solution (0.05 mg/mL), and the mixtures were incubated in the dark at room temperature […] for 1 h. After incubation, the absorbance was read at 517 nm. Inhibition percentage was calculated using Equation (2), where Ac is the absorbance of the control sample (DPPH) and As is the absorbance of the mixtures. All measurements were made in triplicate. I % = (Ac-As)/Ac × 100 (2)

[18] = Glutamine imination/transimination (amino acid binding) followed by NMR; conditions: 1/1 molar ratio with glutamine, MEM medium, 37 °C, 48 h
Protocol: The ability of the studied compounds to bind amino acids by imitation or transamination processes was investigated for glutamine amino acid. To do this, all compounds were incubated in the presence of glutamine for 48 h in a MEM solution to simulate in vitro tests on cancer cell lines. After incubation, the water was removed by lyophilization, and the crude solid was analyzed by NMR. […] Additional information about imine formation was obtained from the H,C-HSQC spectrum (Figure S2). In this type of heteronuclear bidimensional spectrum, a proton–carbon direct bond correlation signal was obtained between the proton resonating at 8.15 ppm and the carbon resonating at 160.5 ppm.
The mixtures were incubated at 37 °C for 48 h in order to simulate the in vitro conditions of antitumor determinations. After the incubation, all the samples were lyophilized, dissolved in DMSO-d6 and subjected to NMR spectroscopy analysis. The samples that indicated the imine formation were further investigated by recording the ^1H, ^15N HMBC and ^1H, ^13C HSQC NMR spectra. The ^1H-NMR and ^1H, ^15N HMBC NMR spectra of the glutamine dissolved in a mixture of 9/1 H2O/D2O were also provided as reference in order to determine which nitrogen was involved in the imine linkage. After the NMR studies, the same samples were diluted with DMSO to obtain a solution of 0.33 mM in order to provide their UV-vis spectra.

[19] = Complex formation with Mg2+ (estimate of farnesyltransferase inhibition), FTIR/UV-vis; conditions: 2/1 compound/MgCl2, 2 days at 37 °C, FTIR and UV-vis; taken as estimate of farnesyltransferase inhibition
Protocol: To estimate the ability of the studied compounds to inhibit the FT, their ability to bind the Zn^2+ or Mg^2+ ions was investigated by incubation in similar conditions as in vitro antitumor tests. The experiments indicated the ability of TEGylated derivatives to bind Mg^2+ ions, as follows.
After that, all the solutions were lyophilized, and the solid samples obtained were subjected to the FTIR spectroscopy measurements. Then, the mixtures that indicated complex formation were dissolved in DMSO, and their UV-vis spectra were recorded.

[20] = Solubility test in water with 1% DMSO; type: physicochemical; conditions: water with 1% of DMSO, read-out: concentration up to which the compound is soluble
Protocol: Solubility tests were performed to establish the maximum concentration of the compounds that might be used for in vitro tests by dissolving 0.003 mmol of compound in 1mL of water (H2O) with 1% of DMSO. The amount of solvent was increased until the compound was completely dissolved. The volume of solvent corresponding to the solving point was used to calculate the concentration. The TEGylated compounds were soluble under 0.3 mM (PTF) and 0.2 mM (PTMA, PTEA), and PEGylated compounds were soluble at to a concentration of 2 mM.

[21] = Cytotoxicity MTS assay on normal fibroblasts; type: cell-based, human; conditions: human, normal human dermal fibroblasts (NHDF), read-out: cell viability
Protocol: as §1, §2, §3

[22] = test system: U87-MG; conditions: cell line not clear from layout (U87-MG assumed); cited from earlier work
[23] = Mus musculus, CT26, MTS, tested 0.01-0.3 mM, read-out: Half maximal inhibition concentration (IC50)
[24] = Homo sapiens, HeLa, 48 h, MTS, tested 0.01-0.3 mM, read-out: Half maximal inhibition concentration (IC50)
[25] = Homo sapiens, MTS, tested 0.01-0.3 mM, read-out: Half maximal inhibition concentration (IC50)

| Structure (SMILES) | IC50 [8] [µM] | Selectivity index (SI) [9] | Selectivity index (SI) [10] | IC50 [11, 25] [µM] | Selectivity index (SI) [11] | IC50 [12] [µM] | IC50 [13] [µM] | IC50 [14] [µM] | IC50 [15] [µM] | IC50 [16] [µM] | radical scavenging capacity (in words) [17] | ability to bind Mg^2+ ions (in words) [19] | solubility [20] [µM] | further results |
| --- | --- | --- | --- | --- | --- | --- | --- | --- | --- | --- | --- | --- | --- | --- |
| O=c1[nH]cc(F)c(=O)[nH]1 [5-Florouracil] |  |  |  |  |  |  |  |  |  |  |  |  |  | IC50 [1]: 253 µM; IC50 ([2]; reference cell empty, probably merged): 677 µM; IC50 [3]: 300 µM; IC50 [4]: 61.5 µM; IC50 [5]: 25 µM |
| CN(C)CCCN1c2ccccc2Sc2ccc(Cl)cc21 [Chlorpromazine] |  |  |  |  |  |  |  |  |  |  |  |  |  | IC50 [6]: 10 µM |
| COc1cccc2c1C(=O)c1c(O)c3c(c(O)c1C2=O)C[C@@](O)(C(=O)CO)C[C@@H]3O[C@H]1C[C@H](N)[C@H](O)[C@H](C)O1 [Doxorubicin] |  |  |  |  |  |  |  |  |  |  |  |  |  | IC50 [1]: 1.03 µM; IC50 [2]: 0.18 µM; IC50 [7]: 0.07 µM; IC50 [3]: 10 µM; IC50 [4]: 88 µM; IC50 [5]: 0.137 µM |
| COCCOCCOCCN1c2ccccc2Sc2cc(/C=N/CCc3ccc(S(N)(=O)=O)cc3)ccc21 [PTEA] | 107 | 1.25 | 6.66 | 85 | 1.25 | > 300 | 183 | 138 | 239 | 170 | very low radical scavenging capacity | formation of dative bonds | < 200 | IC50 [9, 23]: 80 µM; IC50 [10, 24]: 15 µM; ability to bind glutamine by imination/transimination (in words) [18]: direct transimination |
| COCCOCCOCCN1c2ccccc2Sc2cc(C=O)ccc21 [PTF, 10-(triethylene glycol)-10H-phenothiazine-3-carbaldehyde] | 150 | 2.38 | 10 | 50 | 3 | > 300 | 186 | 108 | 147 | 190 | very low radical scavenging capacity | dative bond with magnesium | < 300 | viability at 48 h, 0.05 mM ([21]; 0.05 mM): 86%; viability at 48 h, 0.2 mM ([21]; 0.2 mM): 33%; viability at 100 µM ([9]; Mus musculus, CT26, CT-26, 0.1 mM, 48 h, MTS): 30%; IC50 ([9]; Mus musculus, CT26, MTS, read-out: IC50): 63 µM; viability at 50 µM ([10]; Homo sapiens, HeLa, 0.05 mM, 48 h, MTS, read-out: cell viability): 11%; IC50 ([10]; Homo sapiens, HeLa, 48 h, MTS, read-out: IC50): 15 µM; viability at 100 µM ([11]; Homo sapiens, HepG2, 0.1 mM, 48 h, MTS, read-out: cell viability): 27%; IC50 ([11]; Homo sapiens, MTS, read-out: IC50): 52 µM; Selectivity index (SI) [14]: 1.5 |
| COCCOCCOCCN1c2ccccc2Sc2cc(/C=N/Cc3ccc(S(N)(=O)=O)cc3)ccc21 [PTMA, 4-((((10-(triethylene glycol)-10H-phenothiazin-3-yl)methylene)amino)methyl)benzenesulfonamide] | 200 | 2 | 6.89 | 83 | 2.5 | > 300 | 219 | 141 | 287 | > 300 | very low radical scavenging capacity | formation of dative bonds | < 200 | IC50 [9, 23]: 107 µM; IC50 [10, 24]: 29 µM; Selectivity index (SI) [14]: 1.42; ability to bind glutamine by imination/transimination (in words) [18]: glutamine binding process took places in two steps |
| OCCN1CCN(CCCN2c3ccccc3Sc3ccc(Cl)cc32)CC1 [Perphenazine] |  |  |  |  |  |  |  |  |  |  |  |  |  | IC50 [22]: 6.8 µM |

Source: article PMC10049495, “Antitumor Activity of PEGylated and TEGylated Phenothiazine Derivatives: Structure–Activity Relationship” (International Journal of Molecular Sciences, 2023)
